Assay results: patent publication US20110158969A1, “COMPOSITIONS AND METHODS FOR USING STROMAL CELLS TO ENHANCE TREATMENT OF CENTRAL NERVOUS SYSTEM INJURIES” (HENRY FORD HEALTH SYSTEM, priority 2008, published 2011)

Legend:
[1] = test system: BrdU-positive cells in the boundary around the lesion; experiment: BrdU immunostaining, proliferating cells around the lesion; format: in vivo, rat; conditions: 14 days after ICH; vs control group; P<0.05
Rat ICH Model = experiment: Striatal tissue loss (H & E staining, image analysis) in rat ICH model; format: in vivo; conditions: 14 days after ICH; relative to contralateral striatum; mean±standard error; mannitol 1.5 g/kg iv, 1 million cells intraarterial
Procedure: Thirty-six male Wistar rats weighing from 270 to 320 grams were used for intracerebral hemorrhage studies. Stereotactic stabilization and localization were used in the rats under general anesthesia as previously described (Seyfried et al., 2006). ICH was induced by injecting 100 μl of autologous blood, obtained from the femoral vein, into the right striatum at a steady infusion rate of 10 μl per minute (Seyfried et al., 2004). Twenty four hours after ICH, the animals were divided into four experimental groups. Group 1 received only intraarterial (via internal carotid artery) injection of 1 million human primary fibroblasts in phosphate-buffered saline (PBS) as a control. Group 2 received intravenous injection of mannitol at a dose of 1.5 g/kg in PBS via the tail vein. Group 3 received intraarterial (internal carotid artery) injection of 1 million hBMSCs in PBS. Group 4 received intravenous injection of mannitol at a dose of 1.5 g/kg followed 10 minutes later by intraarterial injection of 1 million hBMSCs in PBS. All treatments were administered 24 hours after induction of ICH. All rats also received a daily intraperitoneal injection of 100 mg/kg BrdU starting at day 1 after ICH for 14 days.
Histology and immunohistochemistry. […] Percentage of the striatal tissue loss compared to the contralateral striatum was calculated using an image analysis system (Data Translation, Marlboro, Mass.). […]

[2] = test system: Rat Intracerebral Hemorrhage (ICH) Model; experiment: Neurological severity score (NSS) test in rat ICH model; format: in vivo; conditions: end of second week (day 14) after ICH; vs human fibroblast control group; P<0.05 significant
Procedure: (§1) Functional neurological tests. Functional neurological outcomes were measured by the neurological severity score test (NSS) (Chen et al., 2001) and the corner turn test (Zhang et al., 2002), as previously described in Seyfried et al., 2006. Statistical analysis. Statistical analysis of functional scores was performed using the Student's two-tailed t-test for independent samples.

[3] = test system: Rat Intracerebral Hemorrhage (ICH) Model; experiment: Corner turn test in rat ICH model; format: in vivo; conditions: end of second week (day 14) after ICH; vs human fibroblast control group; P<0.05 significant
Procedure: as §1

OC[C@@H](O)[C@@H](O)[C@H](O)[C@H](O)CO [mannitol]
BrdU positive staining cells around the injured site [1]: significantly increased the BrdU labeling | percentage loss of striatal tissues on the side of hemorrhage (Rat ICH Model): 25.9±1.75% | functional neurological outcome assessed by NSS [2]: failed to show any statistically significant neurological improvement | functional neurological outcome assessed by corner turn test [3]: failed to show any statistically significant neurological improvement
